Source: ChEMBL document CHEMBL2057069, “Benzoxazole and benzothiazole amides as novel pharmacokinetic enhancers of HIV protease inhibitors” (Bioorg Med Chem Lett, 2012)

What was measured:
[1] = target: Cytochrome P450 3A4 (Homo sapiens, UniProt P08684); assay: Inhibition of CYP3A4 in human liver microsomes using midazolam as substrate after 10 mins by LC/MS/MS analysis
[2] = test system: Human immunodeficiency virus 1; assay: Antiviral activity against wild type HIV1 3B infected in human MT4 LTR-EGFP cells by EGFP reporter gene assay; assay type: functional, organism-based; conditions: Human immunodeficiency virus 1, 3B

Sequence of Cytochrome P450 3A4 (P08684 whole entry): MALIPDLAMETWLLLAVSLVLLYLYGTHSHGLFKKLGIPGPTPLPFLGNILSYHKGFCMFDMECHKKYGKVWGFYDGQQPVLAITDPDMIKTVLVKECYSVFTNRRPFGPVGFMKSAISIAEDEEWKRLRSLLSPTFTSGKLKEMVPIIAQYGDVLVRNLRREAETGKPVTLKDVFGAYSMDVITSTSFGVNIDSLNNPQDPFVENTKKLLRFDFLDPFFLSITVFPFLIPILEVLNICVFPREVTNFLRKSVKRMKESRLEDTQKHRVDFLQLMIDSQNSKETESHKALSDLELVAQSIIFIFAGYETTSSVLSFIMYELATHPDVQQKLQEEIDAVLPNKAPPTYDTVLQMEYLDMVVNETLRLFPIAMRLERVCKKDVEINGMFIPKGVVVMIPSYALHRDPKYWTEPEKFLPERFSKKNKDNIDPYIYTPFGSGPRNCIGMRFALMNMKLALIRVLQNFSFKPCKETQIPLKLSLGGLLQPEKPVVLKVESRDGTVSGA

SMILES | IC50 [1] [µM] | EC50 [2] [µM]
CC(C)CN(C[C@@H](O)[C@H](Cc1ccccc1)NC(=O)OCc1cncs1)C(=O)c1ccc2nc(-c3ccncc3)oc2c1 | 0.024 | > 100
CCNc1nc2ccc(C(=O)N(CC(C)C)C[C@@H](O)[C@H](Cc3ccccc3)NC(=O)OCc3cncs3)cc2o1 | 0.028 | 85
CC(C)CN(C[C@@H](O)[C@H](Cc1ccccc1)NC(=O)OCc1cncs1)C(=O)c1ccc2nc(N)oc2c1 | 0.042 | > 100
CCNc1nc2ccc(C(=O)N(C[C@@H](O)[C@H](Cc3ccccc3)NC(=O)OCc3cncs3)CC(C)(C)O)cc2o1 | – | > 100
CCN(C)c1nc2ccc(C(=O)N(C[C@@H](O)[C@H](Cc3ccccc3)NC(=O)OCc3cncs3)CC(C)(C)C)cc2o1 | 0.037 | 48
CC(C)(O)CN(C[C@@H](O)[C@H](Cc1ccccc1)NC(=O)OCc1cncs1)C(=O)c1ccc2nc(N3CCCC3)oc2c1 | – | > 100
CC(C)CN(C[C@@H](O)[C@H](Cc1ccccc1)NC(=O)OCc1cncs1)C(=O)c1ccc2nc(N3CCCCC3)oc2c1 | – | 36
CC(C)CN(C[C@@H](O)[C@H](Cc1ccccc1)NC(=O)OCc1cncs1)C(=O)c1ccc2ncoc2c1 | 0.055 | > 100
CCN(C)c1nc2ccc(C(=O)N(CC(C)C)C[C@H](O)[C@H](Cc3ccccc3)NC(=O)OCc3cncs3)cc2o1 | – | 45
CC(C)CN(C[C@@H](O)[C@H](Cc1ccccc1)NC(=O)OCc1cncs1)C(=O)c1ccc2nc(C(C)C)oc2c1 | 0.037 | 45
CC(C)CN(C[C@@H](O)[C@H](Cc1ccccc1)NC(=O)OCc1cncs1)C(=O)c1ccc2nc(N(C)CCN(C)C)oc2c1 | – | 63
CN(C)CCN(C[C@@H](O)[C@H](Cc1ccccc1)NC(=O)OCc1cncs1)C(=O)c1ccc2nc(N3CCCC3)oc2c1 | 0.23 | > 100
CC(C)CN(C[C@@H](O)[C@H](Cc1ccccc1)NC(=O)OCc1cncs1)C(=O)c1ccc2nc(N3CCCC3)oc2c1 | 0.033 | > 100
CCN(C)c1nc2ccc(C(=O)N(CCN(C)C)C[C@@H](O)[C@H](Cc3ccccc3)NC(=O)OCc3cncs3)cc2o1 | – | > 100
CCN(C)c1nc2ccc(C(=O)N(CC3CCCCC3)C[C@@H](O)[C@H](Cc3ccccc3)NC(=O)OCc3cncs3)cc2o1 | 0.026 | 21
C#CCN(C[C@@H](O)[C@H](Cc1ccccc1)NC(=O)OCc1cncs1)C(=O)c1ccc2nc(N(C)CC)oc2c1 | – | 60
CCc1nc2ccc(C(=O)N(CC(C)C)C[C@@H](O)[C@H](Cc3ccccc3)NC(=O)OCc3cncs3)cc2o1 | 0.039 | 87
CC(C)CN(C[C@H](O)[C@H](Cc1ccccc1)NC(=O)OCc1cncs1)C(=O)c1ccc2nc(N3CCCC3)oc2c1 | – | 45
CCN(C)c1nc2ccc(C(=O)N(CC(C)C)C[C@@H](O)[C@H](Cc3ccccc3)NC(=O)OCc3ccc4c(c3)OCO4)cc2o1 | – | 16
O=C(N[C@@H](Cc1ccccc1)[C@H](O)CN(CC1CCCCC1)C(=O)c1ccc2nc(N3CCCC3)oc2c1)OCc1cncs1 | 0.026 | 28
CC(C)CN(C[C@@H](O)[C@H](Cc1ccccc1)NC(=O)OCc1cncs1)C(=O)c1ccc2nc(N(C)C)oc2c1 | – | 47
Cc1nc2ccc(C(=O)N(CC(C)C)C[C@@H](O)[C@H](Cc3ccccc3)NC(=O)OCc3cncs3)cc2o1 | 0.052 | > 100
CC(C)CN(C[C@@H](O)[C@H](Cc1ccccc1)NC(=O)OCc1cncs1)C(=O)c1ccc2nc(NCCCN(C)C)oc2c1 | 0.2 | 60
CCN(C)c1nc2ccc(C(=O)N(CCN3CCOCC3)C[C@@H](O)[C@H](Cc3ccccc3)NC(=O)OCc3cncs3)cc2o1 | 0.14 | > 100
CC(C)c1nc(CN(C)C(=O)N[C@H](C(=O)N[C@@H](Cc2ccccc2)C[C@H](O)[C@H](Cc2ccccc2)NC(=O)OCc2cncs2)C(C)C)cs1 [RITONAVIR] | – | 0.0015
CC(C)CN(C[C@@H](O)[C@H](Cc1ccccc1)NC(=O)OCc1cncs1)C(=O)c1ccc2nc(NCCCn3ccnc3)oc2c1 | – | 87
